Laboratory results taken from patent publication US11826432B2, “Linkers, conjugates and applications thereof” (priority 2021, dated 2023).

Tests used:
[1] = system: HER2 high-expressing cancer cells SK-BR-3; test: Cytotoxicity assay (CellTiter-Glo cell viability), SK-BR-3; assay type: cell-based; conditions: SK-BR-3, 120 h treatment
Method: (§1) Cytotoxicity assays were performed using HER2 high-expressing cancer cells SK-BR-3 (FIG. 1) and NCI-N87 (FIG. 2), HER2 low-expressing cancer cells CFPAC-1 (FIG. 3) and NCI-H2110 (FIG. 4), as well as a HER2 negative cell line MDA-MB-468 (FIG. 5) to analyze the effect of conjugates on tumor cell proliferation. […] In brief, 3000 to 5000 cells were plated in 96-well plates, and cells were able to attach overnight. Cells were treated with indicated drugs with various concentrations for 120 h. Cell viabilities were examined by CellTiter-Glo® Luminescent Cell Viability Assay, and percentage of cell viability was calculated.

[2] = system: HER2 high-expressing cancer cells NCI-N87; test: Cytotoxicity assay (CellTiter-Glo cell viability), NCI-N87; assay type: cell-based; conditions: NCI-N87, 120 h treatment
Method: as §1

CC[C@@]1(O)C(=O)OCc2c1cc1n(c2=O)Cc2c-1nc1cc(F)c(C)c3c1c2[C@@H](NC(=O)CO)CC3 [compound 10]
IC50 [1]: 1.47 nM
IC50 [2]: 4.68 nM
